According to publication PMC9082918, “Time-course changes in DNA damage of corneal epithelial cells in rabbits following ocular instillation with genotoxic compounds” (Genes and Environment, 2022):
Where two headings read alike, the source gives them in different places. Marks after values point to notes of the source that are not given here.

Tests used:
[1] = test system: corneal epithelial cells of rabbit; assay: In vivo alkaline comet assay of corneal epithelial cells after single ocular instillation
Procedure: Experiments were performed per sampling time, and […] clinically normal rabbits were randomly assigned to each treatment group.
After ocular instillation, the eyelids were artificially blinked several times. The rabbits were euthanized after 0.5, 2, 4, 6, and 24 h by intravenously administering an overdose (approximately 90 mg/kg) of thiopental solution (Ravonal; Nipro ES Pharma Co. Ltd., Osaka, Japan). The eyeballs of the rabbits were collected after euthanasia and subjected to the comet assay.
The collected eyes were washed with Ca^2+- and Mg^2+-free phosphate-buffered saline (PBS). After washing, the corneas were removed from the eyes using scissors. The removed corneas were treated with 1.2 unit/mL Dispase II (Roche Diagnostics K.K., Tokyo, Japan) in minimum essential media (MEM; Thermo Fisher Scientific K. K., Tokyo, Japan) supplemented with 10% bovine serum (10% BS/MEM) overnight at 4 °C. Corneal epithelial cells were isolated using a spatula and placed into fresh 10% BS/MEM. The cells were centrifuged at 200×g for 5 min, and the supernatants were discarded. The cells were resuspended in 1 mL of 0.25% trypsin (Thermo Fisher Scientific K. K.) and incubated for 10 min at 37 °C. Furthermore, 8 mL of 10% BS/MEM was added to the cells, and the cell suspensions were passed through a 70-μm cell strainer. The cells were centrifuged at 200×g for 5 min, and the supernatants were discarded. The cells were then resuspended with PBS to a density of approximately 2 × 10^5 cells/mL.
The alkaline comet assay was conducted according to previously published method. A 30 μL of the prepared cell suspension was mixed with 270 μL of melted agarose solution (CometAssay LMAgarose; Trevigen, Inc., Gaithersburg, MD). Then, 30 μL of this mixture was placed in each well of a 20-well slide (CometSlide HT, Trevigen, Inc.), and the slide was left for approximately 10 min at 4 °C to solidify the agarose. The slide was immersed in lysis solution (pH 10) containing 2.5 M sodium chloride, 100 mM di-sodium dihydrogen ethylenediaminetetraacetate dihydrate (EDTA∙2Na), 10 mM tris(hydroxymethyl)aminomethane (Tris), and 1% (v/v) polyethylene glycol mono-p-isooctylphenyl ether for 1 h at 4 °C. Subsequently, the slide was immersed in an alkaline unwinding solution (200 mM sodium hydroxide and 1 mM EDTA, pH > 13) for 20 min at room temperature. Electrophoresis was performed with the same solution at 1 V/cm for 30 min under refrigeration. After electrophoresis, the slide was washed twice with ultrapure water and dehydrated by immersion in ethanol for 10 min. The slide was stained with SYBR Green I Nucleic Acid Gel Stain (excitation maxima at 497 nm, emission maxima at 520 nm; Thermo Fisher Scientific K. K.) diluted 1:1000 with Tris-EDTA buffer (pH 7.5) and mounted using ProLong Gold (Thermo Fisher Scientific K. K.). The slide was observed using a BX51 fluorescence microscope (Olympus Corporation, Tokyo, Japan) with a NIBA filter (excitation at 460–495 nm and emission at 510–550 nm) equipped with a CCD camera (scA1300-32 fm; Basler AG, Ahrensburg, Germany).
First, the number of “hedgehogs” was counted among 150 comets per eye (450 comets per group). According to the Atlas of Comet Assay Images, hedgehogs are highly fragmented cells presenting as a small or non-existent comet head and large diffuse comet tail. Second, 150 scorable comets (i.e., with a clearly defined head and tail with no interference from neighboring cells) without hedgehogs were measured per eye (450 comets per group).

HCE-T cells [2] = assay: In vitro comet assay after 1 min exposure; format: cell-based, human
Procedure: To assess time-course changes in DNA damage after short-time exposure to the genotoxic compounds, the in vitro comet assay was performed using HCE-T cells with reference to our previous study. Briefly, the HCE-T cells were seeded in a 12-well culture plate at a density of 5 × 10^4 cells/well (1 mL/well) and incubated for approximately 24 h. After a 24-h incubation, the cells were washed with PBS. […] After the treatment, the cells were washed with PBS, and 1 mL of fresh culture medium was added. The cells were further incubated for 2, 4, 6, and 24 h at 37 °C. After incubation, the cells were trypsinized (TrypLE™ Express, Thermo Fisher Scientific K.K.). In the same manner, the cells were exposed to the test compounds or distilled water as a negative control for 1 min to evaluate DNA damage immediately after exposure. Immediately after the treatment, the cells were washed and trypsinized. The collected cells were centrifuged and re-suspended in PBS at a density of 1–2 × 10^5 cells/mL. Comet assay was performed as described previously herein (n = 3/group).
(§1) The mean and SD of the % tail DNA and cell viability (%) were calculated for all experimental groups. […] JMP version 15.1.0 was used for all statistical analyses.

[3] = test system: anterior segment of the eye; assay: Ophthalmological examination of anterior ocular segment (slit-lamp, fluorescein staining); format: in vivo, rabbit
Procedure: (§2) Twenty-four hours after administration, the anterior segment of the eye was observed using a slit-lamp biomicroscope SL-130 (Carl Zeiss Meditec AG, Jena, Germany). The corneal epithelial damage was evaluated by staining with fluorescein (AYUMI Pharmaceutical Corporation, Tokyo, Japan). After anterior ocular observation, the rabbits were euthanized in the same manner as the comet assay, and the eyeballs of the rabbits were collected.

[4] = Cytotoxicity assay (Cell Counting Kit-8) after 1 min exposure; format: cell-based, human; conditions: human
Procedure: (§3) For cytotoxicity assay, the HCE-T cells were seeded in a 96-well culture plate at a density of 5 × 10^3 cells/well (100 μL/well) and incubated for approximately 24 h. After the 24-h incubation, the cells were washed with PBS. The cells were then exposed to a mixture of 50 μL of serum-free medium and an equal volume of test compounds at twice concentration of final concentration for 1 min at room temperature. After the treatment, the cells were washed with PBS, and 100 μL of fresh culture medium was added. The cells were further incubated for 2, 4, 6, and 24 h at 37 °C. After that, the cells were incubated with 100 μL of Cell Counting Kit-8 (Dojindo Laboratories Co., Ltd., Kumamoto, Japan) diluted to one-tenth with a serum-free medium for 2 h at 37 °C. Absorbance was measured at 450 nm using a microplate reader (Synergy HTX, BioTek Instruments Inc., Winooski, VT). Cell viability was calculated as follows: the absorbance of compound-treated cells/the absorbance of non-treated cells, expressed as a percentage (n = 3/group).
as §1

HCE-T cells [5] = assay: as above; format: cell-based, human
Procedure: as §3, §1

rabbit cornea = assay: Histopathological examination of cornea; conditions: in vivo
Procedure: as §2
The collected eyes (one eye per group) were fixed with 1% formaldehyde/2.5% glutaraldehyde in 0.1 M phosphate buffer fixative overnight at 4 °C and post-fixed with 10% neutral-buffered formalin solution. The tissues were dehydrated using a graded alcohol series and embedded in paraffin. Approximately 3-μm-thick corneal tissue sections were prepared and stained with hematoxylin and eosin. All microscopic images were obtained with a BX53 microscope fitted with a DP74 digital camera (Olympus Corporation) and analyzed using the cellSens Standard imaging software, version 2.3 (Olympus Corporation).

[6] = after single ocular instillation (1% EtBr, 3% MMS, 1% 4-NQO), sampling at 0.5, 2, 4, 6, 24 h

## CC[n+]1c(-c2ccccc2)c2cc(N)ccc2c2ccc(N)cc21 [EtBr, ethidium bromide]
[1]; 0.5 h after single ocular instillation (1% EtBr, 3% MMS, 1% 4-NQO)
  % tail DNA, median: 25.8%
[1]; 0.5 h after single ocular instillation (1% EtBr, 3% MMS, 1% 4-NQO), mean ± SD, n = 3
  Frequency of hedgehog: 3.6 ± 2.5%
[1]; 0.5 h after single ocular instillation of 50 μL (1% EtBr, 3% MMS, 1% 4-NQO), n = 3 eyes
  % tail DNA, mean ± SD: 31.0 ± 3.0%
[1]; 2 h after single ocular instillation (1% EtBr, 3% MMS, 1% 4-NQO)
  % tail DNA, median: 22.6%
[1]; 2 h after single ocular instillation (1% EtBr, 3% MMS, 1% 4-NQO), mean ± SD, n = 3
  Frequency of hedgehog: 3.3 ± 1.7%
[1]; 2 h after single ocular instillation of 50 μL (1% EtBr, 3% MMS, 1% 4-NQO), n = 3 eyes
  % tail DNA, mean ± SD: 28.1 ± 1.6%
[1]; 4 h after single ocular instillation (1% EtBr, 3% MMS, 1% 4-NQO)
  % tail DNA, median: 61.5%
[1]; 4 h after single ocular instillation (1% EtBr, 3% MMS, 1% 4-NQO), mean ± SD, n = 3
  Frequency of hedgehog: 8.9 ± 3.5^a %
[1]; 4 h after single ocular instillation of 50 μL (1% EtBr, 3% MMS, 1% 4-NQO), n = 3 eyes
  % tail DNA, mean ± SD: 55.3 ± 1.4%
[1]; 6 h after single ocular instillation (1% EtBr, 3% MMS, 1% 4-NQO)
  % tail DNA, median: 40.4%
[1]; 6 h after single ocular instillation (1% EtBr, 3% MMS, 1% 4-NQO), mean ± SD, n = 3
  Frequency of hedgehog: 1.6 ± 2.3%
[1]; 6 h after single ocular instillation of 50 μL (1% EtBr, 3% MMS, 1% 4-NQO), n = 3 eyes
  % tail DNA, mean ± SD: 41.0 ± 6.5%
[1]; 24 h after single ocular instillation (1% EtBr, 3% MMS, 1% 4-NQO)
  % tail DNA, median: 5.4%
[1]; 24 h after single ocular instillation (1% EtBr, 3% MMS, 1% 4-NQO), mean ± SD, n = 3
  Frequency of hedgehog: 0.4 ± 0.6%
[1]; 24 h after single ocular instillation of 50 μL (1% EtBr, 3% MMS, 1% 4-NQO), n = 3 eyes
  % tail DNA, mean ± SD: 10.0 ± 4.0%
[1]; [6]
  Time of the peak value of the % tail DNA: 4 h
HCE-T cells [2]; 1 min exposure (0.5% EtBr, 0.5% MMS, 0.001% 4-NQO), then 2, 4, 6, 24 h in fresh medium
  Change of % tail DNA after removing the compound: gradually increased
[3]; 24 h after single ocular instillation (1% EtBr, 3% MMS)
  Ophthalmological changes of the anterior ocular segment: No abnormal ophthalmological changes
[4]; read-out: Cell viability
  viability at 2 h: 89.3 ± 6.1%
  viability at 4 h: 74.7 ± 8%
  viability at 6 h: 73.1 ± 4.6%
  viability at 24 h: 39.1 ± 1.3%
HCE-T cells [5]; 24 h after removing the compound, 1 min exposure, 0.5% EtBr
  Cytotoxicity (in words): Moderate cytotoxicity
HCE-T cells [5]; other times (2, 4, 6 h) after removing the compound, 1 min exposure, 0.5% EtBr
  Cytotoxicity (in words): slight cytotoxicity

## O=[N+]([O-])c1cc[n+]([O-])c2ccccc12 [4-NQO, 4-nitroquinoline 1-oxide]
[1]; [6]
  Time of the peak value of the % tail DNA: 0.5 h
[4]; read-out: Cell viability
  viability at 2 h: 139 ± 2%
  viability at 4 h: 114 ± 14.5%
  viability at 6 h: 123 ± 24.2%
  viability at 24 h: 118 ± 13.9%

## COS(C)(=O)=O [MMS, methyl methanesulfonate]
[1]; rabbit, in vivo
  Time of the peak value of the % tail DNA: 0.5 h
[1]; rabbit, in vivo, 0.5 h
  % tail DNA, mean ± SD: 66.2 ± 1.8%
  % tail DNA, median: 70.8%
  Frequency of hedgehog: 12.9 ± 7.8^a %
[1]; rabbit, in vivo, 2 h
  % tail DNA, mean ± SD: 63.6 ± 4.4%
  % tail DNA, median: 69.4%
  Frequency of hedgehog: 13.6 ± 8.3^a %
[1]; rabbit, in vivo, 4 h
  % tail DNA, mean ± SD: 47.1 ± 7.2%
  % tail DNA, median: 48.9%
  Frequency of hedgehog: 10.7 ± 1.0^a %
[1]; rabbit, in vivo, 6 h
  % tail DNA, mean ± SD: 50.1 ± 2.8%
  % tail DNA, median: 56.0%
  Frequency of hedgehog: 8.0 ± 2.0^a %
[1]; rabbit, in vivo, 24 h
  % tail DNA, mean ± SD: 40.1 ± 2.4%
  % tail DNA, median: 38.1%
  Frequency of hedgehog: 2.0 ± 1.0^a %
HCE-T cells [2]
  Change of % tail DNA after removing the compound: decreased
[3]; rabbit, in vivo
  Ophthalmological changes of the anterior ocular segment: No abnormal ophthalmological changes
Rabbit cornea
  Infiltrate, inflammatory cell, corneal limbus: ±
[4]
  viability at 2 h: 115 ± 5.1%
  viability at 4 h: 108.1 ± 0.3%
  viability at 6 h: 108 ± 4.9%
  viability at 24 h: 108 ± 11.3%
HCE-T cells [5]
  Cytotoxicity (in words): no cytotoxicity
